≈ marks a conversion by molar mass, not a printed value.
System: Mycobacterium tuberculosis
Experiment: Antimycobacterial activity against clinical isolate multidrug resistant Mycobacterium tuberculosis H37Rv assessed as bacterial growth inhibition
Type: functional

`C[C@]1(COc2ccc(N3CCC(Oc4ccc(OC(F)(F)F)cc4)CC3)cc2)Cn2cc([N+](=O)[O-])nc2O1` was tested. Which MIC50 did it give?
Its MIC50 is 0.002 µg/mL (≈ 0.00374 µM).

What about the MIC90 of the same compound?
The MIC90 was 0.003 µg/mL (≈ 0.00561 µM).

What does the source list for `C[C@]1(CN2Cc3nc(-c4ccc(F)cc4)sc3C2)CN=C(N)O1`?
MIC50: 0.011 µg/mL (≈ 0.0331 µM); MIC90: 0.035 µg/mL (≈ 0.105 µM)

How did the MIC50 turn out when `NNC(=O)c1ccncc1` [ISONIAZID] was run?
The MIC50 was 4.37 µg/mL (≈ 31.9 µM).

What about the MIC90 of the same compound?
Its MIC90 is greater than 40 µg/mL.

With `NC[C@H]1O[C@H](O[C@H]2[C@H](O)[C@@H](O[C@H]3O[C@H](CO)[C@@H](O)[C@H](N)[C@H]3O)[C@H](N)C[C@@H]2N)[C@H](O)[C@@H](O)[C@@H]1O` [KANAMYCIN] as the compound, how does the MIC50 read?
The MIC50 was 1.24 µg/mL (≈ 2.55 µM).

What about the MIC90 of the same compound?
The MIC90 was greater than 40 µg/mL.

How did the MIC50 turn out when `CO[C@H]1/C=C/O[C@@]2(C)Oc3c(C)c(O)c4c(O)c(c(/C=N/N5CCN(C)CC5)c(O)c4c3C2=O)NC(=O)/C(C)=C\C=C\[C@H](C)[C@H](O)[C@@H](C)[C@@H](O)[C@@H](C)[C@H](OC(C)=O)[C@@H]1C` [RIFAMPIN] was run?
The MIC50 was greater than 40 µg/mL.

And the MIC90?
The MIC90 was greater than 40 µg/mL.
